Source: patent US20050009005A1, “Methods of using quantitative lipid metabolome data” (Lipomics Technologies, Inc., priority 2001, published 2005)

Assay: Body and adipose tissue weight of CL316,243-treated mice (trial 2, FIG. 3)
Assay type: in vivo
Source text: FIG. 3 is a pair of bar graphs showing the body (FIG. 3a) and adipose (FIG. 3b) weights of mice treated with CL316,243 (hatched bars), and corresponding controls(solid bars).
In trial 2, male, inbred NON mice were fed a control with or without the presence of the β-3 adrenergic agonist CL316,243 for four weeks (at 0.001% CL316,243 by weight in the dietary chow).
In both studies, five treated and five control mice were used. Following the treatments and the killing of the mice, tissues and plasma were taken, chilled to −80 ° C. and shipped to the analysis laboratory at Lipomics Technologies in a frozen state.
Tables 7 and 8 show the concentrations of lipid metabolites present in adipose, plasma, heart and liver tissues in mice treated with CL3 16,243 and their controls. In Tables 5 and 7, the data are expressed as nanomoles per gram of tissue or plasma. In tables 6 and 8, the data are expressed as a percentage of total fatty acids within each lipid class.

SMILES: C[C@H](Cc1ccc2c(c1)OC(C(=O)[O-])(C(=O)[O-])O2)NC[C@H](O)c1cccc(Cl)c1.[Na+].[Na+] [CL316,243]
- mouse body weight (CL316,243 4 weeks vs controls (FIG. 3a)): significant decrease
- adipose tissue weight (CL316,243 4 weeks vs controls (FIG. 3b)): significant decrease
